Calls of active or inactive are those of the source. No stated cut-off is given here; in the data, actives have a measured IC50 and inactives only a lower limit.
target: Envelope glycoprotein gp160 (Human immunodeficiency virus 1, UniProt Q6QLK5); assay: cell-free HIV fusion peptide-binding blockers – biochemical, uHTS, fluorescence dequenching, […] (AID 1986)
Sequence (Q6QLK5 whole entry, the tested form may be a part): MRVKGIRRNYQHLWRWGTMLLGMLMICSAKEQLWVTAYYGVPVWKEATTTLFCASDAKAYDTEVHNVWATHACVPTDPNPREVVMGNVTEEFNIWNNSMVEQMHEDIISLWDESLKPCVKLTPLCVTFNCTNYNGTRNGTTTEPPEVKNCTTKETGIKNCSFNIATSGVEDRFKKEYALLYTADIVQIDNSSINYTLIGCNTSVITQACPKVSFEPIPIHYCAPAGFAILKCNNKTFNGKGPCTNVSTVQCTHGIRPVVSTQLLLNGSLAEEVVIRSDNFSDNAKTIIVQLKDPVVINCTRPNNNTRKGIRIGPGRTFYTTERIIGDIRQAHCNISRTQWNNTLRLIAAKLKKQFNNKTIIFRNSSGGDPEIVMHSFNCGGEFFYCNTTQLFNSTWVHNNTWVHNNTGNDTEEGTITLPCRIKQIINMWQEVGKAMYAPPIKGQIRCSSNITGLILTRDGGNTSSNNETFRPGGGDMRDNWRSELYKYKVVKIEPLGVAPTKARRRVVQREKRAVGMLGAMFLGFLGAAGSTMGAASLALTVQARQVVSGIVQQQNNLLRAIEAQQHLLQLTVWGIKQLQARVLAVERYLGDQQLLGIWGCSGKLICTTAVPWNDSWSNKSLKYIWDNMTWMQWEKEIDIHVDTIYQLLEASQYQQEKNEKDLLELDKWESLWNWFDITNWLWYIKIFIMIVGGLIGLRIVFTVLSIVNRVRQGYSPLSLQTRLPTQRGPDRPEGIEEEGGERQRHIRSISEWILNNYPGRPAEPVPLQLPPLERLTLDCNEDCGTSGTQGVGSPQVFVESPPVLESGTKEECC

SMILES	IC50
Cc1ccc2nc(N3C(=O)C(O)=C(C(=O)c4ccco4)C3c3cccc(O)c3)sc2c1 (stereo not drawn)	16.9 µM (active)
CC1(C)CC(=O)C2=C(C1)c1c(ccc3ccccc13)NC2c1cc([N+](=O)[O-])cc([N+](=O)[O-])c1O (stereo not drawn)	9.83 µM (active)
CC(C)COc1ccc(-c2nn(-c3ccccc3)cc2/C=C2/SC(=S)N(CC(=O)O)C2=O)cc1	8.09 µM (active)
